Data reported in the OPERA property sets (Mansouri et al. 2018).

Conditions: not given

Structure (SMILES) | boiling point [°C] | log10 vapour pressure (mmHg) | melting point [°C] | log10 Koa | ready biodegradability | log10 biodegradation half-life (days) | log10 Henry constant (atm·m³/mol) | log10 Koc (L/kg)
COC(=O)C=Cc1ccccc1 | 260 | -1.46 | 36 |  |  |  |  | 
N#CC(C#N)=C1c2cc([N+](=O)[O-])ccc2-c2c1cc([N+](=O)[O-])cc2[N+](=O)[O-] |  |  | 267 |  |  |  |  | 
CC(C)(C)C1CCCCC1O (stereo unspecified) |  |  | 45 |  |  |  |  | 
COC(=O)COc1ccccc1 | 245 |  | 245 |  |  |  |  | 
Cc1cocn1 | 88 |  |  |  |  |  |  | 
C=CCn1c(N)cc(=O)n(CC)c1=O |  |  | 143 |  |  |  |  | 
O=C(c1cc(O)c(O)c(O)c1)c1ccc(O)c(O)c1O |  |  | 270 |  |  |  |  | 
NCC(CC(=O)O)c1ccc(Cl)cc1 (stereo unspecified) |  |  | 207 |  |  |  |  | 
Clc1cc2c(c(Cl)c1Cl)Oc1c(cc(Cl)c(Cl)c1Cl)O2 |  | -10.3 | 243 | 11 |  |  |  | 
Fc1ccc(I)cc1 | 183 |  | -27 |  |  |  |  | 
O=C=NCCCCCCN=C=O | 255 |  | -67 |  |  |  |  | 
O=C(O)c1ccc(Sc2ccccc2)cc1 |  |  |  |  | readily biodegradable |  |  | 
O=C(O)c1ccc(-c2ccccc2)cc1 |  |  | 228 |  |  |  |  | 
O=C(O)CCCCCl | 230 |  | 18 |  |  |  |  | 
OCC(F)(F)C(F)(F)C(F)(F)F | 95 | 1.52 |  |  |  |  |  | 
O=c1cccccc1 |  |  | -7 |  |  |  |  | 
Cc1ccc(CCl)cc1 | 201 | -0.527 |  |  |  |  |  | 
CCCCCCCCCCC=CCCCCCCCC(=O)O |  |  | 23 |  |  |  |  | 
CCC(C)(C)C | 49.7 | 2.5 | -99 |  |  | 1.28 |  | 
CN(C)c1ccc2c(c1)Sc1cc(N(C)C)ccc1N2C(=O)c1ccccc1 |  |  | 195 |  |  |  |  | 
C=CC(C)(O)CCC=C(C)C (stereo unspecified) | 198 | -0.796 |  |  | readily biodegradable |  | -4.67 | 
CCCCCS(=O)CCCCC |  |  | 58 |  |  |  |  | 

Structure (SMILES) | boiling point [°C] | log10 vapour pressure (mmHg) | melting point [°C] | log10 Koa | ready biodegradability | log10 biodegradation half-life (days) | log10 Henry constant (atm·m³/mol) | log10 Koc (L/kg)
CNC(=S)S |  |  |  |  | not readily biodegradable |  |  | 
FC(F)(F)C1(F)C(F)(F)C(F)(F)C(F)(F)C(F)(F)C1(F)F | 76.3 | 2.02 | -44.7 |  |  |  |  | 
Cc1cc(S(=O)(=O)c2ccccc2)ccc1NS(=O)(=O)C(F)(F)F |  |  | 143 |  |  |  |  | 3.08
CCC(O)C(CC(C)N(C)C)(c1ccccc1)c1ccccc1 (stereo unspecified) |  |  | 127 |  |  |  |  | 
COc1cccc([N+](=O)[O-])c1 | 258 |  | 38.5 |  | not readily biodegradable |  |  | 
CCC/C=C/COC(C)=O | 166 |  |  |  |  |  |  | 
CS(=O)(=O)c1ccc(-c2cn3ccccc3n2)cc1 |  |  | 243 |  |  |  |  | 
COc1ccc(C(=O)NCc2cccnc2)cc1C(=O)NCc1cccnc1 |  |  | 124 |  |  |  |  | 
CC1=Nc2ccc(Cl)cc2S(=O)(=O)N1 |  |  | 330 |  |  |  |  | 
BrCCCCCCCBr | 263 |  | 41.7 |  |  |  |  | 
O=[N+]([O-])c1ccc(Sc2ccccc2)cc1 |  |  | 56 |  |  |  |  | 
CN(C(=O)CN(CCO)CC(=O)N(C)C(C)(C)Cc1ccccc1)C(C)(C)Cc1ccccc1 |  |  | 104 |  |  |  |  | 
O=Cc1ccc(C=O)cc1 | 246 |  | 117 |  | readily biodegradable |  |  | 
C=CC(=C)CCC=C(C)C | 167 | 0.304 |  |  | readily biodegradable |  |  | 
CC(C)(C)C1=CC(=O)C=C(C(C)(C)C)C1=O |  |  | 66 |  |  |  |  | 
CCCC(CC)c1ccccc1 (stereo unspecified) | 209 |  | -55.4 |  |  |  |  | 
CCOC(OCC)(OCC)OCC | 160 |  |  |  |  |  |  | 
CCCCCCN1CC(C(=O)O)CC1=O (stereo unspecified) |  |  | 42.5 |  |  |  |  | 
O=C1C=CC(=O)C=C1 |  | -1.05 | 116 |  |  |  |  | 
Cc1ccc2cnccc2c1 | 266 |  | 85.5 |  |  |  |  | 
Nc1ncnc(Nc2ccc(Cl)cc2)n1 |  |  | 234 |  |  |  |  | 
COc1ccccc1OC(=O)Oc1ccccc1OC |  |  | 89 |  |  |  |  | 

Structure (SMILES) | boiling point [°C] | log10 vapour pressure (mmHg) | melting point [°C] | log10 Koa | ready biodegradability | log10 biodegradation half-life (days) | log10 Henry constant (atm·m³/mol) | log10 Koc (L/kg)
O=C(Nc1ccc(Cl)c(Cl)c1)Nc1cc(Cl)ccc1Oc1ccc(Cl)cc1S(=O)(=O)O |  |  |  |  | not readily biodegradable |  |  | 
C=CCC1(C(C)C)C(=O)NC(=O)N(C)C1=O (stereo unspecified) |  |  | 56.5 |  |  |  |  | 
Nc1ccc(C(=O)O)cc1O |  |  | 213 |  |  |  |  | 
CC(C)C(C)C(C)C | 114 | 1.43 | -109 |  |  | 1.18 |  | 
O=C(O)Cc1ccccc1O | 240 |  | 148 |  |  |  |  | 
CCCCCCCCCCCCCCCC[N+](C)(C)CC.[Br-] |  |  | 182 |  |  |  |  | 
CCCCCCCCCCCCCCC(C)O (stereo unspecified) | 314 |  | 44 |  |  |  |  | 
COc1cc(O)ccc1O |  |  | 90 |  |  |  |  | 
O=C(O)c1cc(Cl)c(Cl)c(Cl)c1Cl |  |  | 194 |  |  |  |  | 
CCCCCCCCCCCCCC(=O)CC |  |  | 43 |  |  |  |  | 
CCC=C(C)CCC | 121 |  |  |  |  |  |  | 
C1=CCC2CC=CC2C1 (stereo unspecified) |  |  |  |  | not readily biodegradable |  |  | 
O=[N+]([O-])c1ccc(CBr)cc1 |  |  | 99 |  |  |  |  | 
Cc1cc(C)nc(C)c1 | 171 | 0.298 | -46 |  |  |  |  | 
COc1cc(OC)nc(Sc2cccc(Cl)c2C(=O)[O][Na])n1 |  |  |  |  |  |  |  | 1.15
O=c1[nH]c(=O)n([C@H]2CC[C@@H](CO)O2)cc1Br |  |  | 180 |  |  |  |  | 
C1CCC(NC2CCCCC2)CC1 | 256 | -1.47 | -0.1 |  | readily biodegradable |  |  | 
C=C(C)C(=O)CC | 118 |  | -69.5 |  |  |  |  | 
C[NH+](C)CCC(c1ccc(Cl)cc1)c1ccccn1.O=C([O-])/C=C\C(=O)O (stereo unspecified) |  |  | 132 |  |  |  |  | 
CCCCSC | 124 | 1.19 | -97.8 |  |  |  |  | 
COc1ccccc1CC#N |  |  | 69.8 |  |  |  |  | 
CC(=O)O[C@@H](C(=O)O)c1ccccc1 |  |  | 97 |  |  |  |  | 

Structure (SMILES) | boiling point [°C] | log10 vapour pressure (mmHg) | melting point [°C] | log10 Koa | ready biodegradability | log10 biodegradation half-life (days) | log10 Henry constant (atm·m³/mol) | log10 Koc (L/kg)
S=c1[nH]c2ccccc2[nH]1 |  |  | 298 |  | not readily biodegradable |  |  | 
CCCCCCCCCCCCCCCC(=O)OC(=O)CCCCCCCCCCCCCCC |  |  | 64 |  |  |  |  | 
CN(C)c1ccccn1 | 196 |  | 182 |  |  |  |  | 
CCCC(CCC)C(C)C | 159 |  |  |  |  |  |  | 
Cc1ccc2[nH]cnc2c1 |  |  | 116 |  |  |  |  | 
c1ccc(-c2ncc[nH]2)cc1 | 340 |  | 149 |  |  |  |  | 
OC[C@@H](O)[C@H](O)[C@@H](O)CO |  |  | 98.8 |  | readily biodegradable |  |  | 
CCCC(O)C(C)(C)C (stereo unspecified) | 156 |  |  |  |  |  |  | 
Cc1cc(C)cc(NC(=O)N(C)C)c1 |  |  |  |  |  |  |  | 1.73
O=C(O)C(Cl)CCl (stereo unspecified) | 210 |  | 50 |  |  |  |  | 
Oc1ccccc1-c1nc2ccccc2s1 |  |  | 131 |  |  |  |  | 
CCOC=O | 54.4 | 2.39 | -79.6 | 2.19 |  |  | -3.41 | 
COC(C)(OC)OC | 108 |  |  |  |  |  |  | 
O=c1[nH]cc(F)c(=O)[nH]1 |  |  | 283 |  |  |  |  | 
CN1CCN(CCCN2c3ccccc3Sc3ccc(C(F)(F)F)cc32)CC1.Cl.Cl |  |  | 240 |  |  |  |  | 
CC(C)(CCl)C(=O)O |  |  | 41.5 |  |  |  |  | 
CN1CCc2cc3c(cc2C1)OCO3 | 304 |  | 66 |  |  |  |  | 
C=C(Br)CBr | 141 | 0.88 |  |  |  |  |  | 
COc1cccc2c1C(=O)c1c(O)c3c(c(O)c1C2=O)C[C@@](O)(C(=O)CO)C[C@@H]3O[C@H]1C[C@H](N)[C@H](O)[C@H](C)O1 |  |  | 230 |  |  |  |  | 
NCCc1c[nH]c2ccc(O)cc12 |  |  | 168 |  |  |  |  | 
C[C@H]1[C@H](C)CC[C@]2(C)CC[C@]3(C)C(=CC[C@@H]4[C@@]5(C)CC[C@H](O)C(C)(C)[C@@H]5CC[C@]43C)[C@H]12 |  |  | 186 |  |  |  |  | 
Nc1ccccc1-c1ccccc1 | 299 |  | 51 |  | not readily biodegradable |  |  | 

Same assay, conditions: fish

Structure (SMILES) | log10 BCF | log10 biotransformation half-life (days)
Clc1cc2c(c(Cl)c1Cl)Oc1c(cc(Cl)c(Cl)c1Cl)O2 | 3.92 | 1.3
CC(C)C1CCC(C(C)C)CC1 (stereo unspecified) |  | 0.97
COc1cccc([N+](=O)[O-])c1 | 0.78 | -1.04
O=C(Nc1ccc(Cl)c(Cl)c1)Nc1cc(Cl)ccc1Oc1ccc(Cl)cc1S(=O)(=O)O | 1.87 | 
Nc1ccccc1-c1ccccc1 | 1.41 | -1.06
